The results in this text go back to patent US11306063B2, “Heterocyclic naphthoquinones derivatives for use in the treatment of cancers including Cushing disease” (Commissariat a l'Energie Atomique et aux Energies …, priority 2016, dated 2022).

In one data set the test system is USP8. The note with it: increasing concentrations; HEK293T lysate; FIG. 13D. The method, then: FIG. 13 D: Flag-USP8 constructs were transfected in HEK293T cells for 48 hours using standard protocols. After cell lysis, the whole cell lysate was incubated with HA-Ub-Vs at 1.5 μM during 12 hours. Then the mixture was separated on SDS-page gel and immunoblotted with anti Flag antibodies (to reveal USP8). The upper band corresponds to USP8 linked to HA-Ub-Vs while the lower band corresponds to free USP8. Immunoblot with anti-tubuline antibodies served as internal loading control.

A further data set deals with HCT116 cells. Briefly: Cytotoxicity assay (PrestoBlue cell viability), HCT116. Format: cell-based. The conditions noted are these: Homo sapiens, HCT-116; 48 hours treatment. Here is the method:
(§1) Messa, Messa DX5, HCT116, HEK-293, PC-3, LNCaP, HCC827 and H1975 cell lines are issued from the American Type Culture Collection (ATCC).
Messa, Messa DX5 and HCT116 were maintained in McCoy's supplemented with 10% fetal bovine serum, and 1% penicillin/streptomycin. PC-3, LNCaP cells were maintained in RPMI medium supplemented with 10% fetal bovine serum, and 1% penicilin/streptomycin and in the case of Messa DX5: 500 nM Doxorubicin was added to maintain selection pressure. HEK293 were maintained in DMEM medium supplemented with 10% fetal bovine serum, and 1% penicillin/streptomycin. Cells were maintained at 37° C. with 5% CO2, 95% air, and humid atmosphere. In the case of hormonal dependent LNCaP cells, 2 μM DiHydroTestosterone (DHT) was added or not—depending on the type of biological assay—for the same incubation period as compounds.
(§2) For cytotoxicity assays, cells were seeded in 96-well microplates 24 hours before the addition of increasing concentrations of each compound in the culture medium. Cell viability was analyzed 48 hours following addition of each compound through the monitoring of mitochondrial […] activity using PrestoBlue® Cell Viability Reagent (Invitrogen; #A-13261). Paclitaxel was used as a control which is cytotoxic on various cancerous cells although not on chemoresistant MESSA DX5 lineage.

The subject of another data set is HCC827 cells. Put plainly: Cytotoxicity assay (PrestoBlue cell viability), HCC827. The format is cell-based. The conditions noted are these: Homo sapiens, 48 hours treatment. Here is the method:
as §1, §2

For data set [1], the system named is MDA-MB231 triple negative breast cancer cells. Briefly: Wounding assay, MDA-MB231. The note with it: from 1 μM concentration; mitomycine 2 μg/ml; 24 hours. Format: cell-based. Here is the method:
(§3) In addition the migratory capacity of two additional triple negative breast cancer cells lines: the metastatic MDA-MB231 and BT-549 showing high migratory capacity was analyzed in a classical wound assay.
(§4) BT-549, MDA-MB231 cell lines were issued from the American Type Culture Collection (ATCC). For wounding assays, cells were seeded in 24-well microplates (Culture Insert 21, ref 250210, Ibidi®). […] Cell spreading was then visualized during 24 hours by videomicroscopy (1 acquisition each 30 min). A representative picture of 3 is presented at 0 and 12 hours of drug treatment out. In Graphs, curves represents the empty surface (devoid of cells) between the two cell layers (delimited by using Image J software).

Data set [2] deals with BT-549 triple negative breast cancer cells. Briefly: Wounding assay, BT-549. The format is cell-based. The conditions noted are these: from 1 μM concentration; mitomycine 2 μg/ml; 24 hours. Here is the method:
as §3, §4

In another data set the test system is chicken embryos. Put plainly: Toxicity in the chick embryo model. Format: in vivo. The note with it: each second day at 2 μM or 10 μM; FIG. 4B. Here is the method:
The number of dead embryo evaluates the toxicity after 10 days of the treatment as well as the research of abnormality on 22 checkpoints observed on surviving embryos at two concentrations of drugs (i.e. 2 μM and 10 μM). • Head: Size, Closure, Eyes, Ear, Face and Branchial are derivatives, Mobility; • Body: Size, Axis deformation, ventral and dorsal Closures, Caudal formation, Sexual area; • Limbs: Size, Axis morphology, Mobility, • Skin: Appendage formation, Attachment, Blood vessel; • Extra-Embryonic Structures: Vascularisation, Transparency, Attachment, Blood vessel Results

Data set [3] relates to CyclinD1 and FAS in PC-3 cells. Briefly: Protein expression by immunoblot, PC-3. Format: cell-based, human. The note with it: dose and time dependent; 6 h or 24 h; FIG. 6. Here is the method: In FIG. 6B and FIG. 6D, LNCaP cells were treated with dihydrotestosterone (DHT) to induce hormonal dependent FAS expression. Actin or Tubulin (Tub) serve as loading controls. One representative experiment out of three is presented.
Cells were treated by either DMSO (0.5%) or increasing doses of the selected molecules from 1 μM to 10 μM over 6 to 24 hours as indicated. Cell lysates were analyzed by immunoblotting following standard procedure using primary antibodies from Cell Signaling: anti-total P53 (#9282), anti-phosphoP53 Kit (#9919), anti-cyclinD1 (#2926), anti-FAS (#3189), anti EGFR (#4267), anti-Phospho (tyr1068) EGFR (#2234), anti Met (#4560), anti-Akt (#9272), anti Phospho(Ser473)-Akt (#9271) or anti-Myc (Santa Cruz Technology #Sc-40). Tubulin was detected using anti α-tubulin primary antibody (in-house: the polyclonal Glu-tubulin antibody (L4) is available commercially from Abcys (Paris, France)). HRP-coupled anti-rabbit (#A6154) and anti-mouse (#A4416) secondary antibodies were purchased from Sigma. HRP activity was detected through HRP chemoluminescence detection reagent (Millipore, #WBLUF0100). Apoptotic cell death induction was observed through the observation of PARP cleavage using anti-PARP primary antibodies anti-PARP (46D11) (#9532). Positive control was Epotoside at 50 μM or 100 μM, a known drug inducing cancerous cell death by apoptosis.

In a further data set the target is USP2-FL (Homo sapiens, UniProt O75604). Briefly: biochemical.
The next data set has as its target USP8-FL (Homo sapiens, UniProt P40818). Put plainly: biochemical.
The target of a further data set is T1, USP2^CD (Homo sapiens, UniProt O75604).
T1 construct: The purified catalytic domain of USP2 (USP2^CD, in-house purified); His; made in house; host or cells: E. coli BL21 Gold
Put plainly: tri-Ub^K63 chains hydrolysis by USP2^CD (western blot). Format: biochemical. The conditions noted are these: FIG. 1C, at the indicated concentrations. The method, then: (§5) The degradation of purified lysine 63-linked tree-Ubiquitin chains (triUb^K63) over a 90 minutes period of time was visualized by western blot analysis. […] Enzymatic assay was performed in a HEPES buffer (50 mM pH7.4, 150 mM NaCl, 0.5 mM EDTA, 2% glycerol, 0.2 mg/ml BSA, 5 mMDTT).
On the technique in general: A western blot detects proteins with antibodies after separation by electrophoresis.

Another data set concerns the target T2, USP8^CD (Homo sapiens, UniProt P40818).
T2 construct: the purified catalytic domain of USP8 (USP8^CD, in-house purified); made in house; host or cells: E. coli BL21 Gold
Put plainly: tri-Ub^K63 chains hydrolysis by USP8^CD (western blot). Format: biochemical. The conditions noted are these: FIG. 1D, at the indicated concentrations. Here is the method: as §5

Structures are written as SMILES.

T2 sequence (P40818 777-1109 limits assumed): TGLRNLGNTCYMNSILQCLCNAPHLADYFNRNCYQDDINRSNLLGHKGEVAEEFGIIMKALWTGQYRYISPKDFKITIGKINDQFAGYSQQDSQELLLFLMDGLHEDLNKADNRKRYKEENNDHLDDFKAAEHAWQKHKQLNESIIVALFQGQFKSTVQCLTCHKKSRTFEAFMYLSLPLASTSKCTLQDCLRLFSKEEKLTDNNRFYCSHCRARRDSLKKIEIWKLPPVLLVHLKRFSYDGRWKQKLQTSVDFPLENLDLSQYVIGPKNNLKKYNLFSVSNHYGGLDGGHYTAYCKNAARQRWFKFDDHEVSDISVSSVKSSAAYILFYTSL
Sequence of USP8-FL (P40818 whole entry): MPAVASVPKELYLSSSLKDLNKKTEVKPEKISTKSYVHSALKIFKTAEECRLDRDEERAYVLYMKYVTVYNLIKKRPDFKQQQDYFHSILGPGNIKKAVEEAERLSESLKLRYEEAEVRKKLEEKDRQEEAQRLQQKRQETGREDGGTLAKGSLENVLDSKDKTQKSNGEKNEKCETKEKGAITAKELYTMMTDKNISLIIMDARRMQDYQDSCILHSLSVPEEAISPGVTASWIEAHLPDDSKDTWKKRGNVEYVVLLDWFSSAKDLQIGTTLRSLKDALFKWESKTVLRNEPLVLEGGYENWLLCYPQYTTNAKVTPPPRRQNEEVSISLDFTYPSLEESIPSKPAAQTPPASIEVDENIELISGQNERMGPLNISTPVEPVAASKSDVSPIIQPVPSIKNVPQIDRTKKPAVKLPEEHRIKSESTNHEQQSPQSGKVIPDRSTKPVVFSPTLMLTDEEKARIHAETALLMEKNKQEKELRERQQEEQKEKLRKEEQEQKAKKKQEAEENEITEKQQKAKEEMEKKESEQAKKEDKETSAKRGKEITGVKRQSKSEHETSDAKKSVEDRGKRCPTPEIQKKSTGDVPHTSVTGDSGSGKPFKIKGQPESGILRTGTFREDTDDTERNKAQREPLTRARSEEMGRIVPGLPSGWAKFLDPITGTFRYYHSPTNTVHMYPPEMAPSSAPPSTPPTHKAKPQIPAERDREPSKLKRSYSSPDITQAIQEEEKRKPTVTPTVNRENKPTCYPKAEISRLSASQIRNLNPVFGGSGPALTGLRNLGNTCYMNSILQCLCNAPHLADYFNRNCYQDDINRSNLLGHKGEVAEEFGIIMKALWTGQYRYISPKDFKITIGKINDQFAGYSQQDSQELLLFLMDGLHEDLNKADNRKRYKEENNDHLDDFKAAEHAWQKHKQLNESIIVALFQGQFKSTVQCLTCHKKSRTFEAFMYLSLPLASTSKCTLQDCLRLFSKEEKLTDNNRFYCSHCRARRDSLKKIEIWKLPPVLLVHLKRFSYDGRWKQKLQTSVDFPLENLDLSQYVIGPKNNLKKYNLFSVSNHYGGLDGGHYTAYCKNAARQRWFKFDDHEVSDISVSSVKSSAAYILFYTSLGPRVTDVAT
Sequence of USP2-FL (O75604 whole entry): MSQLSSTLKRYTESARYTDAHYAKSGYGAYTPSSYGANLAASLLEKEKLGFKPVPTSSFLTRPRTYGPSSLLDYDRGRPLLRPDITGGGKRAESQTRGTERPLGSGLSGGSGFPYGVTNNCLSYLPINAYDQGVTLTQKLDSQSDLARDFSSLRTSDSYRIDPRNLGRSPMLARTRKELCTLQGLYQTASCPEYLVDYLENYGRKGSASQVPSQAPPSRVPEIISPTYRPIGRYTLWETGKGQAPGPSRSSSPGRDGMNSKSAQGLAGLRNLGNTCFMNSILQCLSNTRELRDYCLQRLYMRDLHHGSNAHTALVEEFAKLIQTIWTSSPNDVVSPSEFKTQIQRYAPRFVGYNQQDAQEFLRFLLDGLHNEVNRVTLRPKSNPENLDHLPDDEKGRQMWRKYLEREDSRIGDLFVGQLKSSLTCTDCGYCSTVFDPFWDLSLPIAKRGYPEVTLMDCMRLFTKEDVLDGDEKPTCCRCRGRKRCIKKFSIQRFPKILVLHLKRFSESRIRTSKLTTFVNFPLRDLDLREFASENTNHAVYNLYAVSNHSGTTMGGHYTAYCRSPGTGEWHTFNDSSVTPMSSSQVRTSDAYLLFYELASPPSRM
T1 sequence (O75604 267-599 limits assumed): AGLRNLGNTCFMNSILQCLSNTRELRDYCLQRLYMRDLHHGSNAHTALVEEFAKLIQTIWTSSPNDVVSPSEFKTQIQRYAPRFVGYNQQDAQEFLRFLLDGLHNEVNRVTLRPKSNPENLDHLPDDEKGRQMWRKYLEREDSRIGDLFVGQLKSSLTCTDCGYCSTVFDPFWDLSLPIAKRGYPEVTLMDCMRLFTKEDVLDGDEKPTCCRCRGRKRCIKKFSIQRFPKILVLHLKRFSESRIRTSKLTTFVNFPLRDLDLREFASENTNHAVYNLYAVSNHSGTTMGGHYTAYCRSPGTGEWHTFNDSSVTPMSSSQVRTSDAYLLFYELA

In general, EC50 refers to the concentration giving half of the maximal effect. Read a low EC50 as an effect from little substance. By IC50 is commonly meant the concentration that inhibits the measured activity by half. Read a high IC50 as lower potency. As to `CCCCS(=O)(=O)Cc1nc2c(nc1CS(=O)(=O)CCCC)C(=O)c1ccccc1C2=O` [PCR6236], the “HA-Ub-VS binding to USP8 in the whole cell lysate” value in the data set on USP8 is “decreased HA-Ub-VS binding to USP8”. Also, the figures for the EC50 with HCT116 cells and in the data set with HCC827 cells were 1300 nM and 1800 nM, respectively. The “cell migration in wounding assay, MDA-MB231” value in data set [1] is given as “prevents triple negative breast cancer cell migration”. Also, the “cell migration in wounding assay, BT-549” value in data set [2] is “prevents triple negative breast cancer cell migration”. Also, in the data set on chicken embryos, the “toxicity (death, macroscopic abnormalities) in chick embryo” value is “No significant toxicity”. The “expression level of CyclinD1, PC-3” value in [3] is reported as “strongly decreased”. In data set [3], the “expression level of FAS, PC-3” value is reported as “strongly decreased”. Besides, the IC50 against USP2-FL is 200 nM; against USP8-FL, < 30 nM.

With `CCCCS(=O)(=O)Cc1nc2c(o1)C(=O)c1ccccc1C2=O` [PCR9301], the “inhibition of tri-Ub^K63 chains hydrolysis by USP2^CD” value against USP2^CD is given as “full inhibition”. Also, the “inhibition of tri-Ub^K63 chains hydrolysis by USP8^CD” value on USP8^CD is given as “full inhibition”. Also, the midpoint of the response with HCT116 cells, the EC50, lay at 1700 nM.
